Measurements from US9464082B2, “Aryl and arylalkyl substituted pyrazolyl and pyrimidinyl tricyclic enones as antioxidant inflammation modulators” (AbbVie Inc., priority 2014, dated 2016).

Test system: IFNγ-Induced NO Production
Assay: Nitric Oxide Suppression Assay (Suppression of IFNγ-Induced NO Production)
Format: cell-based
Details: RAW264.7; RAW 264.7 mouse macrophage cells; 2 hour pre-treatment with compound (3 μM to 0.3 nM, 10 point curve); 20 ng/mL interferon gamma, ~18 hour; Griess detection; n=2-3 in duplicates
Summary of the method: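 Griess-based absorbance read (520–550 nm) of supernatant after RAW 264.7 mouse macrophages received 10-point compound dilutions (3 μM–0.3 nM, DMSO ≤1%) for 2 h, then 20 ng/mL IFNγ for ~18 h at 37 °C. Signal normalised to IFNγ-only peak; IC50 fitted to mean of n=2-3 duplicates.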

Compound	IC50
Cc1nc(-c2cccc(-c3ccc(N)cc3)c2)c2c(n1)[C@@]1(c3ccccc3)C=C(C#N)C(=O)[C@@H](C)[C@@H]1CC2 [Example 118, (6aS,7S,10aR)-4-(4′-aminobiphenyl-3-yl)-2,7-dimethyl-8-oxo-10a-phenyl-5,6,6a,7,8,10a-hexahydrobenzo[h]quinazoline-9-carbonitrile]	4.62 nM
C[C@@H]1C(=O)C(C#N)=C[C@]2(c3ccccc3)c3nn(C)c(-c4cccc(-c5ccc(N)cc5)c4)c3CC[C@@H]12 [Example 149, (5aS,6S,9aR)-3-(4′-aminobiphenyl-3-yl)-2,6-dimethyl-7-oxo-9a-phenyl-4,5,5a,6,7,9a-hexahydro-2H-benzo[g]indazole-8-carbonitrile]	7.32 nM
C[C@@H]1C(=O)C(C#N)=C[C@]2(c3ccccc3)c3nc(-c4cncnc4)ncc3CC[C@@H]12 [Example 49, (6aS,7S,10aR)-7-methyl-8-oxo-10a-phenyl-2-(pyrimidin-5-yl)-5,6,6a,7,8,10a-hexahydrobenzo[h]quinazoline-9-carbonitrile]	7.15 nM
Cc1nc(-c2cccc(-c3cccc(NS(C)(=O)=O)c3)c2)c2c(n1)[C@@]1(c3ccccc3)C=C(C#N)C(=O)[C@@H](C)[C@@H]1CC2 [Example 124, N-{3′-[(6aS,7S,10aR)-9-cyano-2,7-dimethyl-8-oxo-10a-phenyl-5,6,6a,7,8,10a-hexahydrobenzo[h]quinazolin-4-yl]biphenyl-3-yl}methanesulfonamide]	1.35 nM
Cc1nc(-c2cccc3c(Br)n[nH]c23)c2c(n1)[C@@]1(c3ccc(F)cc3)C=C(C#N)C(=O)[C@@H](C)[C@@H]1CC2 [Example 92, (6aS,7S,10aR)-4-(3-bromo-1H-indazol-7-yl)-10a-(4-fluorophenyl)-2,7-dimethyl-8-oxo-5,6,6a,7,8,10a-hexahydrobenzo[h]quinazoline-9-carbonitrile]	31.7 nM
Cc1nc(-c2cccc(CCCO)c2)c2c(n1)[C@@]1(c3ccccc3)C=C(C#N)C(=O)[C@@H](C)[C@@H]1CC2 [Example 110, (6aS,7S,10aR)-4-[3-(3-hydroxypropyl)phenyl]-2,7-dimethyl-8-oxo-10a-phenyl-5,6,6a,7,8,10a-hexahydrobenzo[h]quinazoline-9-carbonitrile]	1.55 nM
C[C@@H]1C(=O)C(C#N)=C[C@]2(c3ccccc3)c3nn(C)c(-c4cccc(-c5ccc(CNS(C)(=O)=O)cc5)c4)c3CC[C@@H]12 [Example 168, N-({3′-[(5aS,6S,9aR)-8-cyano-2,6-dimethyl-7-oxo-9a-phenyl-4,5,5a,6,7,9a-hexahydro-2H-benzo[g]indazol-3-yl]biphenyl-4-yl}methyl)methanesulfonamide]	12.3 nM
COc1ccc([C@]23C=C(C#N)C(=O)[C@@H](C)[C@@H]2CCc2c(-c4ccc(-c5ccn[nH]5)cc4)nc(C)nc23)cc1 [Example 80, (6aS,7S,10aR)-10a-(4-methoxyphenyl)-2,7-dimethyl-8-oxo-4-[4-(1H-pyrazol-5-yl)phenyl]-5,6,6a,7,8,10a-hexahydrobenzo[h]quinazoline-9-carbonitrile]	7.43 nM
Cc1nc(-c2ccccc2)c2c(n1)[C@@]1(c3ccccc3)C=C(C#N)C(=O)[C@@H](C)[C@@H]1CC2 [Example 21, (6aS,7S,10aR)-2,7-dimethyl-8-oxo-4,10a-diphenyl-5,6,6a,7,8,10a-hexahydrobenzo[h]quinazoline-9-carbonitrile]	9.94 nM
COc1nc(OC)c2c(n1)[C@@]1(c3ccccc3)C=C(C#N)C(=O)[C@@H](C)[C@@H]1CC2 [Example 103, (6aS,7S,10aR)-2,4-dimethoxy-7-methyl-8-oxo-10a-phenyl-5,6,6a,7,8,10a-hexahydrobenzo[h]quinazoline-9-carbonitrile]	4.4 nM
Cc1nc(-c2cncnc2)c2c(n1)[C@@]1(c3ccccc3)C=C(C#N)C(=O)[C@@H](C)[C@@H]1CC2 [Example 22, (6aS,7S,10aR)-2,7-dimethyl-8-oxo-10a-phenyl-4-(pyrimidin-5-yl)-5,6,6a,7,8,10a-hexahydrobenzo[h]quinazoline-9-carbonitrile]	31.8 nM
C[C@@H]1C(=O)C(C#N)=C[C@]2(c3ccc(O)cc3)c3n[nH]cc3CCC12 (stereo partly drawn) [Example 72, (6S,9aR)-9a-(4-hydroxyphenyl)-6-methyl-7-oxo-4,5,5a,6,7,9a-hexahydro-2H-benzo[g]indazole-8-carbonitrile]	37.9 nM
COc1ccc([C@]23C=C(C#N)C(=O)[C@@H](C)[C@@H]2CCc2c(-c4ccc(-c5[nH]ncc5Br)cc4)nc(C)nc23)cc1 [Example 79, (6aS,7S,10aR)-4-[4-(4-bromo-1H-pyrazol-5-yl)phenyl]-10a-(4-methoxyphenyl)-2,7-dimethyl-8-oxo-5,6,6a,7,8,10a-hexahydrobenzo[h]quinazoline-9-carbonitrile]	45.7 nM
C[C@@H]1C(=O)C(C#N)=C[C@]2(c3ccccc3)c3nn(C)c(-c4cccnc4)c3CC[C@@H]12 [Example 178, (5aS,6S,9aR)-2,6-dimethyl-7-oxo-9a-phenyl-3-(pyridin-3-yl)-4,5,5a,6,7,9a-hexahydro-2H-benzo[g]indazole-8-carbonitrile]	5.4 nM
COC(=O)c1cccc([C@]23C=C(C#N)C(=O)[C@@H](C)[C@@H]2CCc2cnc(-c4ccccc4)nc23)c1 [Example 99, methyl 3-[(6aS,7S,10aR)-9-cyano-7-methyl-8-oxo-2-phenyl-6,6a,7,8-tetrahydrobenzo[h]quinazolin-10a(5H)-yl]benzoate]	23.4 nM
Cc1nc(-c2cnn(C)c2)c2c(n1)[C@@]1(c3ccccc3)C=C(C#N)C(=O)[C@@H](C)[C@@H]1CC2 [Example 35, (6aS,7S,10aR)-2,7-dimethyl-4-(1-methyl-1H-pyrazol-4-yl)-8-oxo-10a-phenyl-5,6,6a,7,8,10a-hexahydrobenzo[h]quinazoline-9-carbonitrile]	4.86 nM
C[C@@H]1C(=O)C(C#N)=C[C@]2(c3ccccc3)c3nc(-c4cnccn4)ncc3CC[C@@H]12 [Example 84, (6aS,7S,10aR)-7-methyl-8-oxo-10a-phenyl-2-(pyrazin-2-yl)-5,6,6a,7,8,10a-hexahydrobenzo[h]quinazoline-9-carbonitrile]	6.72 nM
C[C@@H]1C(=O)C(C#N)=C[C@]2(c3cccc(C(N)=O)c3)c3ncncc3CC[C@@H]12 [Example 61, 3-[(6aS,7S,10aR)-9-cyano-7-methyl-8-oxo-6,6a,7,8-tetrahydrobenzo[h]quinazolin-10a(5H)-yl]benzamide]	591 nM
C[C@@H]1C(=O)C(C#N)=C[C@]2(c3ccccc3)c3nc(-c4ccc(C(=O)O)cc4)ncc3CC[C@@H]12 [Example 77, 4-[(6aS,7S,10aR)-9-cyano-7-methyl-8-oxo-10a-phenyl-5,6,6a,7,8,10a-hexahydrobenzo[h]quinazolin-2-yl]benzoic acid]	15.4 nM
C[C@@H]1C(=O)C(C#N)=C[C@]2(c3ccccc3)c3nn(C)c(-c4cccc(-c5ccc(NS(C)(=O)=O)cc5)c4)c3CC[C@@H]12 [Example 169, N-{3′-[(5aS,6S,9aR)-8-cyano-2,6-dimethyl-7-oxo-9a-phenyl-4,5,5a,6,7,9a-hexahydro-2H-benzo[g]indazol-3-yl]biphenyl-4-yl}methanesulfonamide]	8.77 nM
CC(=O)OCCCc1cccc(-c2nc(C)nc3c2CC[C@H]2[C@H](C)C(=O)C(C#N)=C[C@]32c2ccccc2)c1 [Example 125, 3-{3-[(6aS,7S,10aR)-9-cyano-2,7-dimethyl-8-oxo-10a-phenyl-5,6,6a,7,8,10a-hexahydrobenzo[h]quinazolin-4-yl]phenyl}propyl acetate]	4.69 nM
C[C@@H]1C(=O)C(C#N)=C[C@]2(c3ccccc3)c3nn(S(=O)(=O)c4ccccc4)cc3CC[C@@H]12 [Example 41, (5aS,6S,9aR)-6-methyl-7-oxo-9a-phenyl-2-(phenylsulfonyl)-4,5,5a,6,7,9a-hexahydro-2H-benzo[g]indazole-8-carbonitrile]	1180 nM
Cc1nc(-c2cccc(CCC(N)=O)c2)c2c(n1)[C@@]1(c3ccccc3)C=C(C#N)C(=O)[C@@H](C)[C@@H]1CC2 [Example 156, 3-{3-[(6aS,7S,10aR)-9-cyano-2,7-dimethyl-8-oxo-10a-phenyl-5,6,6a,7,8,10a-hexahydrobenzo[h]quinazolin-4-yl]phenyl}propanamide]	3.57 nM
Cc1nc(-c2cncn2C)c2c(n1)[C@@]1(c3ccccc3)C=C(C#N)C(=O)[C@@H](C)[C@@H]1CC2 [Example 17, (6aS,7S,10aR)-2,7-dimethyl-4-(1-methyl-1H-imidazol-5-yl)-8-oxo-10a-phenyl-5,6,6a,7,8,10a-hexahydrobenzo[h]quinazoline-9-carbonitrile]	3.25 nM
C[C@@H]1C(=O)C(C#N)=C[C@]2(c3ccccc3)c3n[nH]c(-c4ccc(CCO)cc4)c3CC[C@@H]12 [Example 115, (5aS,6S,9aR)-3-[4-(2-hydroxyethyl)phenyl]-6-methyl-7-oxo-9a-phenyl-4,5,5a,6,7,9a-hexahydro-2H-benzo[g]indazole-8-carbonitrile]	23.6 nM
COc1ccccc1-c1nc(OC)c2c(n1)[C@@]1(c3ccccc3)C=C(C#N)C(=O)[C@@H](C)[C@@H]1CC2 [Example 10, (6aS,7S,10aR)-4-methoxy-2-(2-methoxyphenyl)-7-methyl-8-oxo-10a-phenyl-5,6,6a,7,8,10a-hexahydrobenzo[h]quinazoline-9-carbonitrile]	22.5 nM
CC(=O)OCCc1cccc(-c2nc(C)nc3c2CC[C@H]2[C@H](C)C(=O)C(C#N)=C[C@]32c2ccccc2)c1 [Example 46, 2-{3-[(6aS,7S,10aR)-9-cyano-2,7-dimethyl-8-oxo-10a-phenyl-5,6,6a,7,8,10a-hexahydrobenzo[h]quinazolin-4-yl]phenyl}ethyl acetate]	7.52 nM
Cc1nc(-c2cccc3cn[nH]c23)c2c(n1)[C@@]1(c3ccc(F)cc3)C=C(C#N)C(=O)[C@@H](C)[C@@H]1CC2 [Example 93, (6aS,7S,10aR)-10a-(4-fluorophenyl)-4-(1H-indazol-7-yl)-2,7-dimethyl-8-oxo-5,6,6a,7,8,10a-hexahydrobenzo[h]quinazoline-9-carbonitrile]	7.27 nM
